Data from ChEMBL document CHEMBL4715869, “N-(Pyrimidin-2-yl)-1,2,3,4-tetrahydroisoquinolin-6-amine Derivatives as Selective Janus Kinase 2 Inhibitors for the Treatment of Myeloproliferative Neoplasms” (J Med Chem, 2020).
The source made the active and inactive calls. No cut-off for these calls is given here.

Assays:
[1] = biological target: Receptor-type tyrosine-protein kinase FLT3 (Homo sapiens) (UniProt P36888); assay: Inhibition of FLT3 in human SET2 cells assessed as decrease in AKT phosphorylation at 1 to 1000 nM after 2 hrs by Western blot analysis; type: cell-based; conditions: dose 1-1000 nM
Receptor-type tyrosine-protein kinase FLT3 (Homo sapiens), sequence (P36888 whole entry): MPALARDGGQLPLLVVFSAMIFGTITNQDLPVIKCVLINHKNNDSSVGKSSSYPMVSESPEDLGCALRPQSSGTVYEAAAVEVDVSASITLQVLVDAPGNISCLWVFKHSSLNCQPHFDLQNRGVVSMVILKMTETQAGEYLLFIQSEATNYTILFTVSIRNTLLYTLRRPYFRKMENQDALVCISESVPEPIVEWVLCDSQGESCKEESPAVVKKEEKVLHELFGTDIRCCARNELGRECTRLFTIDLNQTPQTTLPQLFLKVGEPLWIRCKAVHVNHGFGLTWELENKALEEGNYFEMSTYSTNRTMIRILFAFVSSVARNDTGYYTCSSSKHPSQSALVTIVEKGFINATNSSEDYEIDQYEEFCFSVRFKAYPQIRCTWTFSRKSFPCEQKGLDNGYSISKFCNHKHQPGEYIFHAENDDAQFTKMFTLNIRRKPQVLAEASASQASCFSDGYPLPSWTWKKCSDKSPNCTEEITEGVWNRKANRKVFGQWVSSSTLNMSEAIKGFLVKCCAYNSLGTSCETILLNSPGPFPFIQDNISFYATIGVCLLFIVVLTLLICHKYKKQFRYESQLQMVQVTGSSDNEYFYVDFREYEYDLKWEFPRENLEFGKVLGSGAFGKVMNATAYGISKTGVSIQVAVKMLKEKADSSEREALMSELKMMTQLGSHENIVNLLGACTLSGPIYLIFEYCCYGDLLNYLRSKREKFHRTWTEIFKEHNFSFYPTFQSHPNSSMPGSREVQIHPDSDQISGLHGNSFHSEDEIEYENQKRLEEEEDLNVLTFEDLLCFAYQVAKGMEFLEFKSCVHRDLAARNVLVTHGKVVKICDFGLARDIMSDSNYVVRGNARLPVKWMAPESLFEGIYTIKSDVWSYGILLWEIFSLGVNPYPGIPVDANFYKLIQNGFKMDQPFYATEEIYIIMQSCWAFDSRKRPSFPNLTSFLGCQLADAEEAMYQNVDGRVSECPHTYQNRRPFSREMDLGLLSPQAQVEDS

SET-2 [2] = assay: Induction of apoptosis in human SET-2 cells assessed as necrotic cells at 1.6 uM incubated for 24 hrs by Annexin V/PI staining based flow cytometric analysis (reference value: 0.78%); type: functional
[3] = Cmax in male Sprague-Dawley rat at 5 mg/kg, iv administered […] measured upto 24 hrs by LC/MS/MS analysis; type: ADME, organism-based; parameters: route intravenous, dose 5 mg/kg, time <=24; conditions: in vivo
[4] = AUC (0 to t) in Sprague-Dawley rat at 5 mg/kg, iv administered […] measured upto 24 hrs by LC/MS/MS analysis; type: ADME, organism-based; parameters: route intravenous, dose 5 mg/kg, time <=24; conditions: in vivo
[5] = Selectivity index, ratio of IC50 for inhibition of recombinant human FLT3 D835Y mutant (564 to end residues) to IC50 for inhibition of recombinant human JAK2 (808 to end residues)
[6] = Cytotoxicity against rat H9c2(2-1) cells assessed as reduction in cell viability incubated for 72 hrs by MTT assay; type: cell-based; conditions: H9c2, 72 h
[7] = Cmax in male Sprague-Dawley rat at 5 mg/kg, po administered via gavage measured upto 24 hrs by LC/MS/MS analysis; type: ADME, organism-based; parameters: route oral, dose 5 mg/kg, time <=24; conditions: in vivo
[8] = biological target: Tyrosine-protein kinase JAK2 (Homo sapiens, UniProt O60674); assay: Inhibition of recombinant human JAK2 (808 to end residues) KTFCGTPEYLAPEVRREPRILSEEEQEMFRDFDYIADWC as substrate measured after 40 mins in presence of [gamm33P]ATP by scintillation counting method
Tyrosine-protein kinase JAK2, sequence (O60674 whole entry): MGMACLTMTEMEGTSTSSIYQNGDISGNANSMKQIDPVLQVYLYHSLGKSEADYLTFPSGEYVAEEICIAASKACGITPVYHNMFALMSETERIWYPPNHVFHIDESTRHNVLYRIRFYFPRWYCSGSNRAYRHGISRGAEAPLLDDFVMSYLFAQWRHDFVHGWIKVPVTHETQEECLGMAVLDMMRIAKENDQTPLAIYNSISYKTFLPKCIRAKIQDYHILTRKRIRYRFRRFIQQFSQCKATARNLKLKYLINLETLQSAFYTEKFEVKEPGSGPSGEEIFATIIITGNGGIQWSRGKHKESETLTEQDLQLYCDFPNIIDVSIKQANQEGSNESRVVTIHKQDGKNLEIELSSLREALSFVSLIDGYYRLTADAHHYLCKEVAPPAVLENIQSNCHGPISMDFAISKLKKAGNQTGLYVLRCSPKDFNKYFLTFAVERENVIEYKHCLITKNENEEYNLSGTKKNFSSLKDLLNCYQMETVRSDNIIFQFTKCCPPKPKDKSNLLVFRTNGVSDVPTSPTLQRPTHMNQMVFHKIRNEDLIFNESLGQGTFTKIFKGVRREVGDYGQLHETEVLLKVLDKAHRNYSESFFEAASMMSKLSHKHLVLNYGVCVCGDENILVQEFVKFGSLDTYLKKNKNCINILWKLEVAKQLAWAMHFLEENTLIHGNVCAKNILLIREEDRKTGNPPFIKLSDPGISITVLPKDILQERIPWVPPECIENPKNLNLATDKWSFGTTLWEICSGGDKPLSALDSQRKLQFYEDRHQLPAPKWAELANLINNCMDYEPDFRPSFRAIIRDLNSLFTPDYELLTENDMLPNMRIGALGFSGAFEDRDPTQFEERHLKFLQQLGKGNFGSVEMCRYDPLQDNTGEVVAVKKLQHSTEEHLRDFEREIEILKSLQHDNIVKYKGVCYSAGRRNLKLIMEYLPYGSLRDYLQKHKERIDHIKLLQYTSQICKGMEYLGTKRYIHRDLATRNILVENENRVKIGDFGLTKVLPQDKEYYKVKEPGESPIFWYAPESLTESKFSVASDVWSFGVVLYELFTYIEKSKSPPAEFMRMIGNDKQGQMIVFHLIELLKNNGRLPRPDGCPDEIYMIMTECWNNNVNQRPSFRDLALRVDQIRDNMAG

BaF3 = assay: Antitumor activity against mouse BAF3 cells harboring JAK2 V617F mutant implanted in Balb/c mouse assessed as decrease in spleen weight at 60 mg/kg, po qd administered starting from day 4 to 20 and measured on day 25 relative to control; type: functional; parameters: scale not given: the % may be the effect or the level left; conditions: time 21 day
SET-2 [9] = assay: Induction of cell cycle arrest in human SET2 cells assessed as accumulation at G0/G1 phase incubated for 24 hrs by propidium iodide staining based flow cytometry; type: functional; conditions: dose 10-160 nM
[10] = biological target: T1, Tyrosine-protein kinase JAK3 (Homo sapiens, UniProt P52333); assay: Inhibition of recombinant human JAK3 (781 to end residues) using GGEEEEYFELVKKKK as substrate measured after 40 mins in presence of [gamm33P]ATP by scintillation counting method
T1 sequence (P52333 whole entry): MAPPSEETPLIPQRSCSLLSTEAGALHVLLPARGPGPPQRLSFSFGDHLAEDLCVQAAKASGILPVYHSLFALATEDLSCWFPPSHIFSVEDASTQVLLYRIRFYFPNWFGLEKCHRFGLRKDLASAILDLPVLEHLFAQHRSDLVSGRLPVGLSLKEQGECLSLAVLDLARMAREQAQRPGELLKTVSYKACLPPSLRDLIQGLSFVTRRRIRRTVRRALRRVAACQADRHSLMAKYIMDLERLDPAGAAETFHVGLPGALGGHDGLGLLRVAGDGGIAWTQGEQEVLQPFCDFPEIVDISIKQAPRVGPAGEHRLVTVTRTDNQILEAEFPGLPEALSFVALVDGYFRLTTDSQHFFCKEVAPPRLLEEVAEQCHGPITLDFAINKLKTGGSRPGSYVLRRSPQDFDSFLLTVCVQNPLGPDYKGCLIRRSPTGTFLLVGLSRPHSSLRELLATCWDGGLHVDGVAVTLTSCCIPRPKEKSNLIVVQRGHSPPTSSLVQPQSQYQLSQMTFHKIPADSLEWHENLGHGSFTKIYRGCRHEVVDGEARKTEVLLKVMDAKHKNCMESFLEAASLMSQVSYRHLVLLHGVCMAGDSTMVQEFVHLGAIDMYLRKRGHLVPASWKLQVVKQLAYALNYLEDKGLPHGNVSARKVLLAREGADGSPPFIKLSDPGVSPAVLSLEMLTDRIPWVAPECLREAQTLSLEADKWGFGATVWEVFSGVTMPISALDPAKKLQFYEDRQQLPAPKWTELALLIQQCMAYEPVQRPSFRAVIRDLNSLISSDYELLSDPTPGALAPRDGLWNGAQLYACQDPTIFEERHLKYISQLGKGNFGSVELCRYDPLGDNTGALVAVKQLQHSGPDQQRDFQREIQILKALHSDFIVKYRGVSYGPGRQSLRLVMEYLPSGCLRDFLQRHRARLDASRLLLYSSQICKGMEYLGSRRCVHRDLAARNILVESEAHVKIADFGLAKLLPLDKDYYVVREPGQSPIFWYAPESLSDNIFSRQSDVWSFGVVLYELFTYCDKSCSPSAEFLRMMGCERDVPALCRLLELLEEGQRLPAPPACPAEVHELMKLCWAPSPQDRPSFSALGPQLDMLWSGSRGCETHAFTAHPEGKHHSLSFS

SET-2 [11] = assay: Induction of apoptosis in human SET-2 cells assessed as live cells at 0.2 uM incubated for 24 hrs by Annexin V/PI staining based flow cytometric analysis (reference value: 96.23 %); type: functional
SET-2 [12] = assay: Antitumor activity against human SET2 cells xenografted in NOD/SCID mouse assessed as tumor growth inhibition at 60 mg/kg, po qd administered for 16 days and measured every 2 days relative to control; type: functional; conditions: SET-2, po, 384 h, time 16 day, read-out: TGI
L02 = assay: Cytotoxicity against human L02 cells assessed as reduction in cell viability incubated for 72 hrs by MTT assay; type: cell-based; conditions: L02, 72 h
[13] = Selectivity index, ratio of IC50 for inhibition of human JAK1 (866 to end residues) to IC50 for inhibition of recombinant human JAK2 (808 to end residues)
[14] = AUC (0 to t) in Sprague-Dawley rat at 5 mg/kg, po administered via gavage measured upto 24 hrs by LC/MS/MS analysis; type: ADME, organism-based; parameters: route oral, dose 5 mg/kg, time <=24; conditions: in vivo
[15] = biological target: Signal transducer and activator of transcription 3 (Mus musculus) (UniProt P42227); assay: Inhibition of STAT3 phosphorylation in mouse BAF3 cells at 1000 nM after 2 hrs by Western blot analysis; type: cell-based
Signal transducer and activator of transcription 3 (Mus musculus), sequence (P42227 whole entry): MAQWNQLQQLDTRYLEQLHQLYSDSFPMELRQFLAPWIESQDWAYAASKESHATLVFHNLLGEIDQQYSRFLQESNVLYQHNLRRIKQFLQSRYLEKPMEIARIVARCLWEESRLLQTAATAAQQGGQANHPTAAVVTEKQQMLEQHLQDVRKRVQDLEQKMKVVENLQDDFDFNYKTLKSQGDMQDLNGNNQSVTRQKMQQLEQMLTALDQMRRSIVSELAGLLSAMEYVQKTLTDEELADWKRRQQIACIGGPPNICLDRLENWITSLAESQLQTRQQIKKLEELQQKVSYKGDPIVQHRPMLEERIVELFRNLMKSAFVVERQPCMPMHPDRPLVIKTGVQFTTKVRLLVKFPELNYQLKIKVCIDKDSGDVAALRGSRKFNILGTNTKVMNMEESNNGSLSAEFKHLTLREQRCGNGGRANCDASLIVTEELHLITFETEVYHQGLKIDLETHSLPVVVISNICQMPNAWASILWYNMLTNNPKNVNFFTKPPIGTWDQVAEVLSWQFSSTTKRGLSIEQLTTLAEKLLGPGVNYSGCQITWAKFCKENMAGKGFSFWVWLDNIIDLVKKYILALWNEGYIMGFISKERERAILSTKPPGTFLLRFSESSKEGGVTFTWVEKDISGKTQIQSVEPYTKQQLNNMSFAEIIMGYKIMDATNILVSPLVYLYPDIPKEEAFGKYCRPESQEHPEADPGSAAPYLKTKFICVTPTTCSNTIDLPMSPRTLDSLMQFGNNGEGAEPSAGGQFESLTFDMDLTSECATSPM

SET-2 [16] = assay: Induction of apoptosis in human SET-2 cells assessed as necrotic cells at 0.8 uM incubated for 24 hrs by Annexin V/PI staining based flow cytometric analysis (reference value: 0.78%); type: functional
[17] = Elimination half life in male Sprague-Dawley rat at 5 mg/kg, iv administered […] measured upto 24 hrs by LC/MS/MS analysis; type: ADME, organism-based; conditions: in vivo, read-out: beta t1/2 (converted)
SET-2 [18] = assay: Induction of apoptosis in human SET-2 cells assessed as late apoptotic cells at 0.2 uM incubated for 24 hrs by Annexin V/PI staining based flow cytometric analysis (reference value: 1.52%); type: functional
[19] = Selectivity index, ratio of IC50 for inhibition of recombinant human TYK2 (875 to end residues) to IC50 for inhibition of recombinant human JAK2 (808 to end residues)
SET-2 [20] = assay: Induction of apoptosis in human SET-2 cells assessed as late apoptotic cells at 0.4 uM incubated for 24 hrs by Annexin V/PI staining based flow cytometric analysis (reference value: 1.52%); type: functional

For Cc1cnc(Nc2ccc3c(c2)CCN(C(=O)/C=C/CN(C)C)C3)nc1-c1cnn(C(C)C)c1, the inhibition [1] was “inactive”, the Activity (SET-2 [2]) was 4.04% and the Cmax [3] was 479 ng/mL. It also gave an AUC(0-t) at 24 h [4] of 988 ng·h/mL, a Ratio IC50 [5] of 20.7 and an IC50 [6] of 6.93 µM. The Cmax [7] was 51.1 ng/mL, the IC50 [8] was 0.003 µM and the Activity (BaF3) was 77.1%. For the same compound, the Activity (SET-2 [9]) was “Dose-dependent effect”, the IC50 [10] was 0.094 µM and the Activity (SET-2 [11]) was 90.35%. It also gave an inhibition in vivo at 60 mg/kg (SET-2 [12]) of 82.3%, an IC50 (L02) of 7.22 µM and a Ratio IC50 [13] of 14. The AUC(0-t) at 24 h [14] was 254 ng·h/mL, the inhibition [15] was “inactive” and the Activity (SET-2 [16]) was 1.37%. For the same compound, the half-life [17] was 4 h, the Activity (SET-2 [18]) was 5.66% and the Ratio IC50 [19] was 25. For the same compound, the Activity (SET-2 [20]) was 8.68%.
